“Also recorded” adds a separate entry of the source.
Legend:
[1] = tested on: BY4743 yeast cells; format: cell-based
[2] = tested on: yeast cells; conditions: cited from earlier work
[3] = tested on: Arabidopsis seedlings; design: species or system Arabidopsis thaliana; conditions: in vivo
[4] = tested on: mitochondrial membrane potential (ψmito) in BY4743 yeast cells; format: cell-based

## C[C@@H]1C[C@@H]([C@H](O)CC2CC(=O)NC(=O)C2)C(=O)[C@@H](C)C1 [cycloheximide]
[1]
  shift in growth sensitivity relative to cells carrying the vector alone: no significant shift in growth sensitivity

## COc1ccc(C[C@H]2NC[C@H](O)[C@H]2OC(C)=O)cc1 [anisomycin]
[1]
  shift in growth sensitivity relative to cells carrying the vector alone: no significant shift in growth sensitivity

## O=C(N[C@H](CO)[C@H](O)c1ccc([N+](=O)[O-])cc1)C(Cl)Cl [chloramphenicol]
[1]
  shift in growth sensitivity relative to cells carrying the vector alone: no significant shift in growth sensitivity

## C/C=C\C(=O)O[C@@H]1C[C@H]2O[C@@H]3C=C(C)C(=O)C[C@]3(C)[C@]1(C)[C@]21CO1 [Tcin, trichothecin]
[1]
  growth against Tcin: increasingly resistant to Tcin
  growth against Tcin relative to cells carrying the vector alone: more sensitive to Tcin
  growth against Tcin relative to cells containing the vector alone: provided resistance
[2]
  IC50: 2500 nM
[3]
  effect on root growth of the wild type: severely limited root growth; also recorded: severely restricts root initiation and elongation
[4]
  change of ψmito with increasing concentrations of Tcin: did not change much

— patent US9428758B2 (priority 2011, dated 2016)
